{
  "source": "paper PMC11423540",
  "about": "“Synthesis and biological evaluation of ortho-phenyl phenylhydroxamic acids containing phenothiazine with improved selectivity for class IIa histone deacetylases” (Journal of Enzyme Inhibition and Medicinal Chemistry, 2024)",
  "key": {"[1]": {"target": "T1, HDAC8 (Homo sapiens, UniProt Q9BY41)", "T1 sequence (Q9BY41 1-377)": "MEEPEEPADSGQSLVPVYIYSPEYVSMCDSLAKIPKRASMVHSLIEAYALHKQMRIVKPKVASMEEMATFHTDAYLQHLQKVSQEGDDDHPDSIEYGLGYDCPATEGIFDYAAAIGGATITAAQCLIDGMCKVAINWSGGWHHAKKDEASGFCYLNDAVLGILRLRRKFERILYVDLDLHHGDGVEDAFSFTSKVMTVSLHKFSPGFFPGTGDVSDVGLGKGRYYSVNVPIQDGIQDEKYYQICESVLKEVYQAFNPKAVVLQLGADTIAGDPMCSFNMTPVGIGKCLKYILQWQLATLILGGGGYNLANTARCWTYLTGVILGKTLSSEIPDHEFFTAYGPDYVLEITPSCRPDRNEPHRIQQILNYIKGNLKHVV", "experiment": "HDAC inhibition assay, HDAC8"}, "[2]": {"tested_on": "SCC2095 cells", "experiment": "ROS determination by flow cytometry (DCFH-DA probe)", "format": "cell-based, human", "settings": "SCC2095, 12 h or 24 h", "description": "Cells (2 × 10^5) were treated with tested compounds in 6-well plates for 24 h or 48 h, then washed with ice-cold PBS twice and harvested with trypsin. Cells were incubated with 5 µL Annexin V- FITC/PI (BD Pharmingen, San Diego) for 15 min in the dark condition. Then, the cells were measured by BD FACSCanto flow cytometer (BD, Franklin Lakes, NJ). For ROS determination, DMSO or H2O2 or compound 7 g-treated cells were stained with the ROS probe (DCFH-DA; 5 µM) and detected the DCFH-DA fluorescence."}, "[3]": {"tested_on": "SCC2095 cells", "experiment": "Cell viability (MTT) assay, SCC2095", "format": "cell-based", "settings": "Homo sapiens, 48 h, human oral cancer cells, read-out: IC50 of cytotoxicity SCC2095", "description": "Human breast cancer MDA-MB-231 cells and gastric cancer SCM-1 cells were purchased from the American Type Culture Collection (Manasas, VA, USA). SCC2095 human oral cancer cells were kindly provided by Professor Susan R. Mallery (The Ohio State University).\n(§1) To assess cell viability, cells were seeded in three replicates into 96-well plates at a density of 5×10^3/well for 24 h following incubation with compounds at the indicated concentrations. Then, cell viability was assessed with 3–(4,5-dimethylthiazol-2-yl)-2,5-diphenyltetrazolium bromide (MTT) solution (0.5 mg/mL) for 4h as described previously. After removing the medium, 200 µL of DMSO was added, and then the absorbance was measured at 570 nm using a plate reader (BMG LABTECH, Germany)."}, "[4]": {"tested_on": "HeLa nuclear HDACs", "experiment": "HDAC inhibition assay, HeLa nuclear extract (mixture of class I HDACs 1, 2, and 3)", "settings": "read-out: IC50 HeLa nuclear HDACs, Boc-Lys-(AMC) substrate"}, "[5]": {"target": "T2, HDAC7 (Homo sapiens, UniProt Q8WUI4)", "T2 sequence (Q8WUI4 1-952)": "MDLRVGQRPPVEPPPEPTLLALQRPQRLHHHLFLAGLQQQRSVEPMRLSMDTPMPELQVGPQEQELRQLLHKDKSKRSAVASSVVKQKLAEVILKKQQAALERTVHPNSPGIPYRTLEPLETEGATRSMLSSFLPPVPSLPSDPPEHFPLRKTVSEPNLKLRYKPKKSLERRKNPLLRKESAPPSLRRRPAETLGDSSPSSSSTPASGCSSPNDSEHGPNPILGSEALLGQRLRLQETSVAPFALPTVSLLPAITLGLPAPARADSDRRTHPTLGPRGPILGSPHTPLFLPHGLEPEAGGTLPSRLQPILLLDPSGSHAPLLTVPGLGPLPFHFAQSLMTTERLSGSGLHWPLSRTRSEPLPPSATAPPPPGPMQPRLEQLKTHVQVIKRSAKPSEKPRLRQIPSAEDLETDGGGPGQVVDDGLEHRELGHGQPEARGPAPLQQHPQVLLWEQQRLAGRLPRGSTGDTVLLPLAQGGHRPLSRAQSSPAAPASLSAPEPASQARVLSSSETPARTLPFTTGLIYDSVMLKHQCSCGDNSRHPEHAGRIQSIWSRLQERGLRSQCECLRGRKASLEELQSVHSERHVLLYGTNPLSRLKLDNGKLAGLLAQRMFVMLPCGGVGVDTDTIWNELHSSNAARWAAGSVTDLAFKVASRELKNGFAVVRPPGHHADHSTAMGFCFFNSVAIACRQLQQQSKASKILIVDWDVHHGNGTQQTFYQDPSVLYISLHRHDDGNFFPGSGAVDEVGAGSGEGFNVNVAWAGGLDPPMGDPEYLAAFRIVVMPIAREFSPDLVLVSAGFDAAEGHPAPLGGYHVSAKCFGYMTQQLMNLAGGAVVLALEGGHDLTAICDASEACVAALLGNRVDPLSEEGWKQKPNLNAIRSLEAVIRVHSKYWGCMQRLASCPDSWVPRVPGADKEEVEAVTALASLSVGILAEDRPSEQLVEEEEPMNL", "experiment": "HDAC inhibition assay, HDAC7"}, "[6]": {"tested_on": "HDAC4 protein", "experiment": "Surface plasmon resonance binding to HDAC4", "settings": "Figure S1", "description": "HDAC4 protein was crosslinked by EDC (1-ethyl-3-(3-dimethylaminopropyl) carbodiimide) and NHS (N-hydroxysuccinimide). The crosslinking reagent and protein were co- incubated 30 minutes at 25°C.\nBinding reactivity to mutant HDAC4 protein was performed by SPR (OpenSPR, Nicoyalife). The recombinant HDAC4 protein was crosslinked by EDC/NHC regent, followed by dilution to a concentration of 50 μg/mL with PBS and immobilized onto a amine sensor chip (Nicoyalife). The analytes were tested at various dilutions in PBST, and the flow rate was maintained at 20 μL/min during analysis. The amine sensor chip was regenerated with 10 mM glycine−HCl, pH2.5. The results were analyzed using TraceDrawer software (Nicoyalife)."}, "[7]": {"tested_on": "SCC2095, MDA-MB-231 and SCM-1 cells", "experiment": "Cell viability (MTT) assay, cancer cell lines (summary)", "format": "cell-based", "settings": "Homo sapiens; SCC2095, MDA-MB-231, SCM-1; read-out: IC50 of cytotoxicity, range over cancer cell lines", "text": "Human breast cancer MDA-MB-231 cells and gastric cancer SCM-1 cells were purchased from the American Type Culture Collection (Manasas, VA, USA). SCC2095 human oral cancer cells were kindly provided by Professor Susan R. Mallery (The Ohio State University). Normal human lung fibroblasts (NHLFs; CC-2512) were purchased from the Lonza (Walkersville, MD, USA). SCM-1 cells were maintained in RPMI-1640 medium (Invitrogen, Carlsbad, CA, USA); MDA-MB-231 and SCC2095 cells were maintained in DMEM/F12 (Invitrogen); and NHLFs were maintained in FGM™-2 medium (Lonza) with 2% serum, supplemented with 10% heat-inactivated foetal bovine serum (FBS; Gibco, Grand Island, NY, USA). All cells were cultured at 37 °C in a humidified incubator containing 5% CO2 and 95% relative humidity.\nas §1"}, "[8]": {"target": "HDAC9 (Homo sapiens, UniProt Q9UKV0)", "sequence (Q9UKV0 whole entry)": "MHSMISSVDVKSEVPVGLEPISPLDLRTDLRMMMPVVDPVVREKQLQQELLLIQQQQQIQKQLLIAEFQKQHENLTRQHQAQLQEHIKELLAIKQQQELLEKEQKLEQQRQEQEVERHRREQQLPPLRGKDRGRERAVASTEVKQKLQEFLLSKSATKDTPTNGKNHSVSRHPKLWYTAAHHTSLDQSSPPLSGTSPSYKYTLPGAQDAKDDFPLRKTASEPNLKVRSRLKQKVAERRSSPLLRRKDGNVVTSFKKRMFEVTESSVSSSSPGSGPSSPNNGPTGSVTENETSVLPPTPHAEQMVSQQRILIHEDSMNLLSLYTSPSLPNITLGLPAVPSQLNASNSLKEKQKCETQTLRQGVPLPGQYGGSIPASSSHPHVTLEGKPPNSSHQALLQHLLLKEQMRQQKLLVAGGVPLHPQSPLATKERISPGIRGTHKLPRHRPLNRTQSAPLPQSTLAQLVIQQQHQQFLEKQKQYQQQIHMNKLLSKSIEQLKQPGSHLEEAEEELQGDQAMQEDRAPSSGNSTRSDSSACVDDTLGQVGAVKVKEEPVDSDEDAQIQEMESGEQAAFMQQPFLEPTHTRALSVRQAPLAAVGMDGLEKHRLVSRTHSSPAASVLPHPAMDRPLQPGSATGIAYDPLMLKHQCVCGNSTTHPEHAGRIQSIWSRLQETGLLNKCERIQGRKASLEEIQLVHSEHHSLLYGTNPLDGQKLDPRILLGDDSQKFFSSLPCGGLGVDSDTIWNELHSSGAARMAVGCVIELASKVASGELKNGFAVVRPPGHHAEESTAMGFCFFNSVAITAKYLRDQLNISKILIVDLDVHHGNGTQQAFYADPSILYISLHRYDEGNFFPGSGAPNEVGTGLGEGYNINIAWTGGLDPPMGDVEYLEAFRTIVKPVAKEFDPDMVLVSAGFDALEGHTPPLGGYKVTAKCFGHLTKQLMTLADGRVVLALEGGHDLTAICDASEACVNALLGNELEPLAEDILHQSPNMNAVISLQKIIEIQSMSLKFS", "experiment": "HDAC inhibition assay, HDAC9"}},
  "data": [
    {"compound": "NC(=NO)c1ccc2c(c1)N(Cc1ccc(C(=O)NO)c(-c3ccccc3)c1)c1ccccc1S2", "note": "[Compound 7g, N-Hydroxy-4-[2-(N’-hydroxycarbamimidoyl)-10H-phenothiazin-10-yl]methyl-2-phenylbenzamide]", "values": [
      {"measurement": "IC50", "setting": "[1]", "result": 1950, "unit": "nM"},
      {"measurement": "ROS generation", "setting": "[2]", "result": "increased"},
      {"measurement": "IC50", "setting": "[3]", "result": "3000 ± 300", "unit": "nM"},
      {"measurement": "IC50", "setting": "[4]", "result": "> 40000", "unit": "nM"},
      {"measurement": "IC50", "setting": "[5]", "result": "190 ± 40", "unit": "nM"},
      {"measurement": "SPR binding to HDAC4 protein", "setting": "[6]", "result": "can bind to HDAC4 protein"},
      {"measurement": "IC50", "setting": "[7]", "result": "3000 to 8400", "unit": "nM"},
      {"measurement": "IC50", "setting": "[8]", "result": "40 ± 1", "unit": "nM"}
    ]}
  ]
}
